Source: ChEMBL document CHEMBL1201862, “PubChem BioAssay data set” (2004)
Activity calls are given as the source filed them.

What was measured:
[1] = Trypanosoma cruzi growth suppression in host cells – NIH3T3 host cells, beta-gal luminescence, confirmation (AID 2044); assay type: functional, cell-based;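 also: intracellular parasites grown in NIH/3T3 mouse fibroblasts as host cells; luminescent beta-galactosidase reporter signal from transgenic T. cruzi replicating inside host cells; inhibitors lower the luminescence signal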
[2] = Fluorescence-based cell-based high throughput dose response assay for inhibitors of the interaction of nucleotide-binding oligomerization domain containing 2 (NOD2) and the receptor-interacting serine-threonine kinase 2 (RIPK2).; assay type: functional, Homo sapiens; conditions: Homo sapiens
Paired box protein Pax-8 = Paired box protein Pax-8 (Homo sapiens, UniProt Q06710); test: PAX8 transcriptional activity inhibition in RMG-I – RMG-I cells, luciferase, cherry-pick, dose response (AID 687027); assay type: functional, cell-based;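 also: luciferase reporter driven by Pax8 target thyroperoxidase promoter measured by SteadyGlo luminescence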
Chain of Paired box protein Pax-8 (Q06710 whole entry, the tested form may be a part): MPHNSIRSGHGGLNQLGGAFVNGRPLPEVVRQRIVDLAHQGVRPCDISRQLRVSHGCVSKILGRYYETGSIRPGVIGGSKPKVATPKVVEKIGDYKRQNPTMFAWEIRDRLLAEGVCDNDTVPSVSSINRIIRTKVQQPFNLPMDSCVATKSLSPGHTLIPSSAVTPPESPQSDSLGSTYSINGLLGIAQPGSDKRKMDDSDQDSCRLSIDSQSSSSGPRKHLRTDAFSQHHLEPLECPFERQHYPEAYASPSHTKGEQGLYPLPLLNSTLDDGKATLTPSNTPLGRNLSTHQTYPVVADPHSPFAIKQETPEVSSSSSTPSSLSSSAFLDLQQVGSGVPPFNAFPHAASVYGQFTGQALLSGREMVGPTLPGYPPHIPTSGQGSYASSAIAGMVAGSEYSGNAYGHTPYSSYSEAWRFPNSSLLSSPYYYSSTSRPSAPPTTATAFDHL

CHO = CHO cell viability loss, potency – luminescence, cytotoxicity control for TLR9-MyD88 binding inhibitor project, dose response (AID 588339); assay type: functional, cell-based, hamster; conditions: Cricetulus griseus;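 also: CHO cells stably coexpressing TLR9 and MyD88 fusions from primary screen; compound exposure lasted 48 hours before viability readout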
[3] = NIH3T3 cell viability loss – ATP luminescence, mouse fibroblasts, counter-screen, dose response (AID 2010); assay type: functional, cell-based;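 also: cells exposed to compound for about 90 hours before reading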
Mucolipin-3 = Mucolipin-3 (Homo sapiens, UniProt Q8TDD5); test: Dose response cell-based high-throughput screening assay for agonists of the transient receptor potential channel ML3 (TRPML3). [Related pubchem assays: 1526, 1424, 1448 ]; assay type: functional
Chain of Mucolipin-3 (Q8TDD5 whole entry): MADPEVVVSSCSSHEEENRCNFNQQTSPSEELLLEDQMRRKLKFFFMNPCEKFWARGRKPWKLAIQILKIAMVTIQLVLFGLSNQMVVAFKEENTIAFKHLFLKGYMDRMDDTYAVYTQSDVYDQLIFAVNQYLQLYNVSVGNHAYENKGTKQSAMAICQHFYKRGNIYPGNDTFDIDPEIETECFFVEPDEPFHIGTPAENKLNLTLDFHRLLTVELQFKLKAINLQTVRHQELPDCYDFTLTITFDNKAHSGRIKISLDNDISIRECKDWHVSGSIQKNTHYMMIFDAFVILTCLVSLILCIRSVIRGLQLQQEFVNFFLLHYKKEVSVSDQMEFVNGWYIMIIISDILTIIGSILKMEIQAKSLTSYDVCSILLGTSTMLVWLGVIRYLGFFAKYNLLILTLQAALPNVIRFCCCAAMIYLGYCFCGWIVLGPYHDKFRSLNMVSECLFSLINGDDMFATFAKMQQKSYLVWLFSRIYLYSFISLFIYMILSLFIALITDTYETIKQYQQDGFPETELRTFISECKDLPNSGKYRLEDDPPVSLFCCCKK

Ion channel NompC = Ion channel NompC (Danio rerio, UniProt Q7T1G6); test: Fluorescence counterscreen assay for TRPML3 agonists: dose response cell-based high-throughput screening assay to identify agonists of the transient receptor potential channel N1 (TRPN1). [Related pubchem assays: 1526, 1424, 1448 ]; assay type: functional
Chain of Ion channel NompC (Q7T1G6 whole entry): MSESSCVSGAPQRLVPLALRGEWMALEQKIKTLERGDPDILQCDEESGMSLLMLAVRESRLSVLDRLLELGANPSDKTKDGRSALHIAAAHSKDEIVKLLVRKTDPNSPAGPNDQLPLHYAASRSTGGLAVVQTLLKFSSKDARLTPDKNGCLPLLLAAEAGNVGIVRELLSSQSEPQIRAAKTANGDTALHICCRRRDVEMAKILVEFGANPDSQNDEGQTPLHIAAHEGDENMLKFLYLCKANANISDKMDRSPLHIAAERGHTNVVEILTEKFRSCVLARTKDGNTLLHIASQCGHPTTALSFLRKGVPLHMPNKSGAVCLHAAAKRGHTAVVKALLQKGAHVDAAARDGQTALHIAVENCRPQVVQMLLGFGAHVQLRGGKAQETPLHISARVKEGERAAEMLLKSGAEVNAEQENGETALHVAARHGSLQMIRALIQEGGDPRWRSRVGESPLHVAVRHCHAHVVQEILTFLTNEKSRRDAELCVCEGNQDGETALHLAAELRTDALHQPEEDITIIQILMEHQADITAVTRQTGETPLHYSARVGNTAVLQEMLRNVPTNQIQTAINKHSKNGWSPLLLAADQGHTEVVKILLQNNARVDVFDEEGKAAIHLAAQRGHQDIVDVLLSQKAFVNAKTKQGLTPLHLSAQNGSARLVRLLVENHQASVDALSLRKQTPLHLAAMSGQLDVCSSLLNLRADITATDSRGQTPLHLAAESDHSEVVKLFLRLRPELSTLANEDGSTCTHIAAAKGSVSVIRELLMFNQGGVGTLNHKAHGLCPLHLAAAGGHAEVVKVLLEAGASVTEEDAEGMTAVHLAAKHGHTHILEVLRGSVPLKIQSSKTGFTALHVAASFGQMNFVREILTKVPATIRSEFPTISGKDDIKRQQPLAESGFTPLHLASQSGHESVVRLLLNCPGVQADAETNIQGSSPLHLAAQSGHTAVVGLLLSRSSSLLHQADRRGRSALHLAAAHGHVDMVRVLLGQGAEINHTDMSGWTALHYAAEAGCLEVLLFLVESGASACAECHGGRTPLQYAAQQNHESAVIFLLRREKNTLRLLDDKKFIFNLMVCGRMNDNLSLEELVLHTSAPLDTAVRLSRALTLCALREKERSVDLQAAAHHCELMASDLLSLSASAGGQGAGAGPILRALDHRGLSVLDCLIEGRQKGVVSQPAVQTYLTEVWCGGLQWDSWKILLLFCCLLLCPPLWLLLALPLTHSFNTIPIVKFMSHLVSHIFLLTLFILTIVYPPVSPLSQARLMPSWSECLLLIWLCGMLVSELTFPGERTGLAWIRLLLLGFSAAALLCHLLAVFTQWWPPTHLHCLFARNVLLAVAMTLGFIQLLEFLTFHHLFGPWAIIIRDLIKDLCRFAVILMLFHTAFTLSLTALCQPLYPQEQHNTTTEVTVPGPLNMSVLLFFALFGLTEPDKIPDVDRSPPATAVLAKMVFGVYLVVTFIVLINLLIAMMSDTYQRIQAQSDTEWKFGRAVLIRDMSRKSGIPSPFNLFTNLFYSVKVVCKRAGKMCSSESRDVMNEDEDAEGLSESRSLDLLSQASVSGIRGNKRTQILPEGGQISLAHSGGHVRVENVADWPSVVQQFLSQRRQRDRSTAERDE

[4] = target: Beta-2 adrenergic receptor (Homo sapiens, UniProt P07550); test: ADRB2 activation measured by internalization – cell-based, FAP fluorogen, flow cytometry, cherry pick 1, dose response (AID 588763); assay type: functional
Chain of Beta-2 adrenergic receptor (P07550 whole entry): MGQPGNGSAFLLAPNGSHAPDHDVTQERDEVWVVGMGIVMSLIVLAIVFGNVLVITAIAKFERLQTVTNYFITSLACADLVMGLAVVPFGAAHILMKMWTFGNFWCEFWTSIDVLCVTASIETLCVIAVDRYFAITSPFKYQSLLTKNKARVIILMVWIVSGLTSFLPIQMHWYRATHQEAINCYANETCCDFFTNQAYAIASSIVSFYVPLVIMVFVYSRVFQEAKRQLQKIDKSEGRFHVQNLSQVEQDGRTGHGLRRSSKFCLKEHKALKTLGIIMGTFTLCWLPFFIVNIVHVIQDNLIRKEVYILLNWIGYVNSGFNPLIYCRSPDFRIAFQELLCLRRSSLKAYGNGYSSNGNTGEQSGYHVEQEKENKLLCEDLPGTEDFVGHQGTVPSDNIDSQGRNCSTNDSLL

Insulin-degrading enzyme [5] = target: T1, Insulin-degrading enzyme (Homo sapiens, UniProt P14735); test: cellular IDE activation of Abeta substrate cleavage – fluorescence polarization, HEK cells, dose response (AID 588439); assay type: functional, cell-based
T1 sequence (P14735 whole entry): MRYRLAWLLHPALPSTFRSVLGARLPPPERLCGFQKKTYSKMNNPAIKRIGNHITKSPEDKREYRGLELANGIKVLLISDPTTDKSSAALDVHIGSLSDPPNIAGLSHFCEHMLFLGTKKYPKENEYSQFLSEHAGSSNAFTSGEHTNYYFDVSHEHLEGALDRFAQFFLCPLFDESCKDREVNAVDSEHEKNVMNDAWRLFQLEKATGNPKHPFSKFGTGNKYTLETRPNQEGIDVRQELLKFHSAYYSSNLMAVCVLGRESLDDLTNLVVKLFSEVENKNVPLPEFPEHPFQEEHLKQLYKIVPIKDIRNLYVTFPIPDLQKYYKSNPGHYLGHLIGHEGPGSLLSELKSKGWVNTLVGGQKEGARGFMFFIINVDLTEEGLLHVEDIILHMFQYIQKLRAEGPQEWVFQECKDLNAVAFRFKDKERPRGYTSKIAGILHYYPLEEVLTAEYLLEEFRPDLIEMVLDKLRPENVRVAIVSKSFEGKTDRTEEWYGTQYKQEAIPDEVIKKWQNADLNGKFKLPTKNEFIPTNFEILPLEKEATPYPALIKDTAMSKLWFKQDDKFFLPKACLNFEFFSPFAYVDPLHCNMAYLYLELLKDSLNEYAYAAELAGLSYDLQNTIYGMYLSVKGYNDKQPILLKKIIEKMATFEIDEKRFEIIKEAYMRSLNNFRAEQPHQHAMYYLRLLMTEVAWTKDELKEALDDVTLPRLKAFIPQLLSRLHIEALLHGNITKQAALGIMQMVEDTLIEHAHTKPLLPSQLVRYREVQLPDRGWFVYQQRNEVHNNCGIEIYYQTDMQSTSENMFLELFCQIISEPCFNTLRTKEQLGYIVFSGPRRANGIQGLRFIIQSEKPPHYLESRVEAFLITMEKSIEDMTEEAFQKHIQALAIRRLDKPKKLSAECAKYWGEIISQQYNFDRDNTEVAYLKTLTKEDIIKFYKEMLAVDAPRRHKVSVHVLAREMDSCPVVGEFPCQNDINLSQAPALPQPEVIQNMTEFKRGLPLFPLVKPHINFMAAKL

Insulin-degrading enzyme [6] = target: T1, Insulin-degrading enzyme; test: recombinant IDE activation, cell-free – biochemical, fluorescence polarization, counter-screen for IDE activator project, dose response (AID 588681)
HEK293 [7] = test: optical interference in Abeta FP readout, dose response, artefact control for IDE activator project, biochemical, fluorescence polarization (AID 588442); assay type: functional, cell-based; conditions: Homo sapiens
[8] = target: T2, Mannose-6-phosphate isomerase (Homo sapiens, UniProt P34949); test: MPI inhibition at elevated mannose 6-phosphate – biochemical, fluorescence intensity, high mannose 6-phosphate, primary screen (AID 1220)
T2 sequence (P34949 whole entry): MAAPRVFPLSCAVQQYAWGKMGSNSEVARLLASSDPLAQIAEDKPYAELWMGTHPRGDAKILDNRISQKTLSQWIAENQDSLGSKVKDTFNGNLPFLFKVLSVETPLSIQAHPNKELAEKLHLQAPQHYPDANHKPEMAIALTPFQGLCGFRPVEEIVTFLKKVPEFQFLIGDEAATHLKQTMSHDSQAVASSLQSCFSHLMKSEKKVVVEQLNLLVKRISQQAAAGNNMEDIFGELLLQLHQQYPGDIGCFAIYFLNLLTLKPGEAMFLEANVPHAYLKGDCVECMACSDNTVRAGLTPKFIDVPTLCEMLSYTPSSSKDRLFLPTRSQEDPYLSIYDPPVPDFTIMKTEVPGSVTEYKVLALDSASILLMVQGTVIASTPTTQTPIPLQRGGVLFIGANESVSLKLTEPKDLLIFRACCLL

HEK293 [9] = test: membrane integrity loss in HEK cells – cell-based, fluorescence, cytotoxicity control for IDE activator project, dose response (AID 588440); assay type: functional; conditions: Homo sapiens;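 also: cytotoxicity by LDH release measuring loss of membrane integrity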

O=c1c(Cl)c(Cl)cnn1Cc1nnc(-c2ccccc2Br)o1
EC50 [1]: 2.03 µM (active)
IC50 [2]: 7.65 µM (active)
AC50 (Paired box protein Pax-8): 7.63 µM (active)
IC50 (CHO): 1.81 µM (active)
EC50 [3]: 2.51 µM (active)
EC50 (Mucolipin-3): 3.15 µM (active)
EC50 (Ion channel NompC): 11.3 µM (not active)

CN(Cc1cccs1)c1nc(-c2cccnc2)nc2ccccc12
EC50 [4]: 1.26 µM (active)

O=c1oc2cc(O)ccc2cc1-c1nc2c(s1)CCc1ccccc1-2
EC50 (Insulin-degrading enzyme [5]): > 54.7 µM (inactive)
EC50 (Insulin-degrading enzyme [6]): > 54.7 µM (inactive)
EC50 (HEK293 [7]): 4.6 µM (active)
IC50 [8]: > 50 µM (not active)
IC50 (HEK293 [9]): > 89.2 µM (inactive)
